PubChem BioAssay AID1963854 (Molecular Pharmacology Branch, DTP, NCI, 2024)

Tested on: 186277-243-T-J2-PDC complex spheroid viability
Assay: Anticancer human tumor 186277-243-T-J2-PDC patient-derived colon adenocarcinoma cell line growth inhibition [POLQ]
Conditions: for IC50: curve of first compound; for viability, T/C: stronger effect = lower value; active means viability on the fitted dose curve at most 10% of control; inactive means the rest
Summary of the method: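 Patient-derived tumour cells were co-cultured with HUVEC and mesenchymal stem cells as multicellular spheroids at 37 °C. They were treated with POLQ inhibitors (novobiocin, ART-558, RP6685) alone or combined with other agents. Top concentrations were at or near clinical Cmax (otherwise 10 microM; SN-38 at 1 microM), decreasing in half-log steps.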
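Further: spheroids exposed to compounds for seven days.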
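Wherever viability, T/C is given: 100% = DMSO vehicle control viability.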

COc1cc(C2c3cc4c(cc3C(OC3OC5COC(C)OC5C(O)C3O)C3COC(=O)C23)OCO4)cc(OC)c1O (configuration not stated) + Cc1cccc(N(C)C(=O)C2C(O)CCN2c2nc(C)cc(C(F)(F)F)c2C#N)c1
976 nM: IC50 (second compound 1 µM)
890 nM: IC50 (second compound 0.1 µM)
528 nM: IC50 (second compound 10 µM)
749 nM: IC50 (second compound 3.16 µM)
1030 nM: IC50 (second compound 0.0316 µM)
1070 nM: IC50 (second compound 0.316 µM)
inactive: viability, T/C (second compound 0.0316 µM, first compound 0.0316 µM) 102% | viability, T/C (second compound 0.0316 µM, first compound 0.1 µM) 104% | viability, T/C (second compound 0.0316 µM, first compound 0.316 µM) 79.3% | viability, T/C (second compound 0.0316 µM, first compound 1 µM) 48.8% | viability, T/C (second compound 0.0316 µM, first compound 3.16 µM) 30.6% | viability, T/C (second compound 0.0316 µM, first compound 10 µM) 14.3% | viability, T/C (second compound 0.1 µM, first compound 0.0316 µM) 106% | viability, T/C (second compound 0.1 µM, first compound 0.1 µM) 117% | viability, T/C (second compound 0.1 µM, first compound 0.316 µM) 76% | viability, T/C (second compound 0.1 µM, first compound 1 µM) 47.5% | viability, T/C (second compound 0.1 µM, first compound 3.16 µM) 29.2% | viability, T/C (second compound 0.1 µM, first compound 10 µM) 14.4% | viability, T/C (second compound 0.316 µM, first compound 0.0316 µM) 105% | viability, T/C (second compound 0.316 µM, first compound 0.1 µM) 99.2% | viability, T/C (second compound 0.316 µM, first compound 0.316 µM) 80.5% | viability, T/C (second compound 0.316 µM, first compound 1 µM) 48.4% | viability, T/C (second compound 0.316 µM, first compound 3.16 µM) 31.7% | viability, T/C (second compound 0.316 µM, first compound 10 µM) 14.5% | viability, T/C (second compound 1 µM, first compound 0.0316 µM) 93.8% | viability, T/C (second compound 1 µM, first compound 0.1 µM) 115% | viability, T/C (second compound 1 µM, first compound 0.316 µM) 80.7% | viability, T/C (second compound 1 µM, first compound 1 µM) 46% | viability, T/C (second compound 1 µM, first compound 3.16 µM) 36.1% | viability, T/C (second compound 1 µM, first compound 10 µM) 12.7% | viability, T/C (second compound 3.16 µM, first compound 0.0316 µM) 105% | viability, T/C (second compound 3.16 µM, first compound 0.1 µM) 124% | viability, T/C (second compound 3.16 µM, first compound 0.316 µM) 66.7% | viability, T/C (second compound 3.16 µM, first compound 1 µM) 46.6% | viability, T/C (second compound 3.16 µM, first compound 3.16 µM) 27.2% | viability, T/C (second compound 3.16 µM, first compound 10 µM) 13.4% | viability, T/C (second compound 10 µM, first compound 0.0316 µM) 99.6% | viability, T/C (second compound 10 µM, first compound 0.1 µM) 106% | viability, T/C (second compound 10 µM, first compound 0.316 µM) 57.2% | viability, T/C (second compound 10 µM, first compound 1 µM) 37.6% | viability, T/C (second compound 10 µM, first compound 3.16 µM) 23.3% | viability, T/C (second compound 10 µM, first compound 10 µM) 12.2%
